This is an account of results in patent publication US11814445B2, “Cyclic polypeptides for PCSK9 inhibition” (Ra Pharmaceuticals, Inc., priority 2018, dated 2023).

Each structure is given as a SMILES string. Numbered stars: 1 amine (or outer) side, 2 acyl side, 3 side chain; on linkers, the order of the positions; unused ones are H or OH. Bridge positions count the residues as written; N and C are the ends. Square brackets hold non-standard residues; d marks the D form. Peptide text beside a SMILES is read from it. ξ: configuration not given here. Phe(4-CF3) = N[C@@H](Cc1ccc(C(F)(F)F)cc1)C(=O)O; Trp(5-F) = N[C@@H](Cc1c[nH]c2ccc(F)cc12)C(=O)O; Pro(trans-4-F) = O=C(O)[C@@H]1C[C@@H](F)CN1; Phe(3-Cl) = N[C@@H](Cc1cccc(Cl)c1)C(=O)O; Phe(4-Cl) = N[C@@H](Cc1ccc(Cl)cc1)C(=O)O; Pro(cis-4-F) = O=C(O)[C@@H]1C[C@H](F)CN1; αMeW = C[C@](N)(Cc1c[nH]c2ccccc12)C(=O)O; X1 = O=C(CCSCc1cccc(CSCCN[*:1])c1)[*:2]; mXylylene = c1cc(C[*:1])cc(C[*:2])c1; NBzl(4-I)Gly = O=C(O)CNCc1ccc(I)cc1; NMeY = CN[C@@H](Cc1ccc(O)cc1)C(=O)O; Igl = N[C@H](C(=O)O)C1Cc2ccccc2C1; NMeF = CN[C@@H](Cc1ccccc1)C(=O)O; 2Pal = N[C@@H](Cc1ccccn1)C(=O)O; 3Pal = N[C@@H](Cc1cccnc1)C(=O)O; 4Pal = N[C@@H](Cc1ccncc1)C(=O)O; αMeP = C[C@@]1(C(=O)O)CCCN1; ΔPro = O=C(O)[C@@H]1C=CCN1; Pip = O=C(O)[C@@H]1CCCCN1; Ac5c = NC1(C(=O)O)CCCC1; Thp = NC1(C(=O)O)CCOCC1; ξP = O=C(O)C1CCCN1; Mpa = O=C(O)CCS

For the test, the target named is human PCSK9 / human LDLR EGFa domain (Homo sapiens, UniProt Q8NBP7). Description: TR-FRET assay of inhibition of the PCSK9-LDLR protein-protein interaction. It counts as binding. The note with it: 20 nM human PCSK9, 20 nM human LDLR EGFa domain, 2 hours room temperature. The method, then:
A time-resolved fluorescence resonance energy (TR-FRET) assay was used to measure inhibition of the PCSK9-LDLR protein-protein interaction. Briefly, 20 nM avitag-biotinylated human PCSK9 was incubated with 20 nM his-tagged human LDLR EGFa domain in the presence of 5 nM LANCE Ulight Streptavidin (Perkin Elmer) and 5 nM europium-Anti-6×His (Perkin Elmer) for 2 hours covered at room temperature in buffer containing 50 mM HEPES, 150 mM NaCl, 5 mM CaCl2), 0.01% BSA and 0.01% Surfactant P20. Compounds were tested in dose-response and concentrations giving half-maximal inhibition calculated using a 4-parameter fit equation.
On the technique in general: TR-FRET usually uses a lanthanide donor and a delayed reading to cut background.

Chain of human PCSK9 / human LDLR EGFa domain (Q8NBP7 153-692): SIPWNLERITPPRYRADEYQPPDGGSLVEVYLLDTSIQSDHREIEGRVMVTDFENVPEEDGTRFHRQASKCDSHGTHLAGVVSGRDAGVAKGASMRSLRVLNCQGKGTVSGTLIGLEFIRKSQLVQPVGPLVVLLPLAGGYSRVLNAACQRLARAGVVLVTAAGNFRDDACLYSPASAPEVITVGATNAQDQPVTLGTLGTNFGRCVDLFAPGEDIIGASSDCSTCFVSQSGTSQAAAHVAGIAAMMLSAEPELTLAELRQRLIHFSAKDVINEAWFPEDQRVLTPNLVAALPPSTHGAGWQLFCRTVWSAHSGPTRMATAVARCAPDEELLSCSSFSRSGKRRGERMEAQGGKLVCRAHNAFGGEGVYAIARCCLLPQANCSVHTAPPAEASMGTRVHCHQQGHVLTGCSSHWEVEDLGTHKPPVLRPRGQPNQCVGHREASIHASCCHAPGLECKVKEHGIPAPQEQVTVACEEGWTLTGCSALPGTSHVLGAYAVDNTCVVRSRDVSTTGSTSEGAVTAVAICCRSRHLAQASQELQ

In general, IC50 refers to the concentration needed to halve the response being measured. Read a low IC50 as inhibition by little substance. Compound `C[C@@H]1NC(=O)[C@@H]2C[C@H](F)CN2C(=O)[C@H](Cc2c[nH]c3ccc(F)cc23)NC(=O)[C@H](Cc2c[nH]c3ccc(F)cc23)NC(=O)CNC(=O)[C@H](CCCCN)NC(=O)CCSCc2cccc(c2)CSC[C@@H](C(N)=O)NC(=O)[C@@H]2CCCN2C(=O)[C@H](Cc2ccc(O)cc2)NC1=O` [Compound 002] ([Mpa]KG[Trp(5-F)][Trp(5-F)][Pro(cis-4-F)]AYPC-NH2; linker 1-10 via mXylylene) displayed an IC50 of 0.001 to 0.1 µM. The same measure for `C[C@@H]1NC(=O)[C@@H]2CCCN2C(=O)[C@H](Cc2c[nH]c3ccc(F)cc23)NC(=O)[C@H](Cc2c[nH]c3ccc(F)cc23)NC(=O)[C@@H](C)NC(=O)[C@H](CCCCN)NC(=O)CCSCc2cccc(c2)CSCCNC(=O)[C@]2(C)CCCN2C(=O)[C@H](Cc2ccc(O)cc2)NC1=O` [Compound 003] (cyclo(AY[αMeP][X1]K[dA][Trp(5-F)][Trp(5-F)]P)): 1 to 12.1 µM; for `C[C@@H]1NC(=O)[C@@H]2CCCN2C(=O)[C@H](Cc2ccc(Cl)cc2)NC(=O)[C@H](Cc2c[nH]c3ccc(F)cc23)NC(=O)CNC(=O)[C@H](CCCCN)NC(=O)CCSCc2cccc(c2)CSC[C@@H](C(N)=O)NC(=O)[C@@H]2CCCN2C(=O)[C@H](Cc2ccc(O)cc2)NC1=O` [Compound 004] ([Mpa]KG[Trp(5-F)][Phe(4-Cl)]PAYPC-NH2; linker 1-10 via mXylylene): 1 to 12.1 µM; for `C[C@@H]1NC(=O)[C@@H]2CCCN2C(=O)[C@H](Cc2cccc(Cl)c2)NC(=O)[C@H](Cc2c[nH]c3ccc(F)cc23)NC(=O)CNC(=O)[C@H](CCCCN)NC(=O)CCSCc2cccc(c2)CSC[C@@H](C(N)=O)NC(=O)[C@@H]2CCCN2C(=O)[C@H](Cc2ccc(O)cc2)NC1=O` [Compound 005] ([Mpa]KG[Trp(5-F)][Phe(3-Cl)]PAYPC-NH2; linker 1-10 via mXylylene): 0.1 to 1 µM. The same measure for `C[C@@H]1NC(=O)[C@@H]2CCCN2C(=O)[C@H](Cc2ccc(C(F)(F)F)cc2)NC(=O)[C@H](Cc2c[nH]c3ccc(F)cc23)NC(=O)CNC(=O)[C@H](CCCCN)NC(=O)CCSCc2cccc(c2)CSC[C@@H](C(N)=O)NC(=O)[C@@H]2CCCN2C(=O)[C@H](Cc2ccc(O)cc2)NC1=O` [Compound 007] ([Mpa]KG[Trp(5-F)][Phe(4-CF3)]PAYPC-NH2; linker 1-10 via mXylylene): 1 to 12.1 µM; for `C[C@@H]1NC(=O)[C@@H]2CCCN2C(=O)[C@H](C2Cc3ccccc3C2)NC(=O)[C@H](Cc2c[nH]c3ccc(F)cc23)NC(=O)CNC(=O)[C@H](CCCCN)NC(=O)CCSCc2cccc(c2)CSC[C@@H](C(N)=O)NC(=O)[C@@H]2CCCN2C(=O)[C@H](Cc2ccc(O)cc2)NC1=O` [Compound 008] ([Mpa]KG[Trp(5-F)][Igl]PAYPC-NH2; linker 1-10 via mXylylene): 0.1 to 1 µM. As for `C[C@@H]1NC(=O)[C@@H]2CCCN2C(=O)CN(Cc2ccc(I)cc2)C(=O)[C@H](Cc2c[nH]c3ccc(F)cc23)NC(=O)CNC(=O)[C@H](CCCCN)NC(=O)CCSCc2cccc(c2)CSC[C@@H](C(N)=O)NC(=O)[C@@H]2CCCN2C(=O)[C@H](Cc2ccc(O)cc2)NC1=O` [Compound 010] ([Mpa]KG[Trp(5-F)][NBzl(4-I)Gly]PAYPC-NH2; linker 1-10 via mXylylene), the IC50 is 0.1 to 1 µM. The same measure for `COc1ccc(C[C@@H]2NC(=O)[C@H](Cc3c[nH]c4ccc(F)cc34)NC(=O)CNC(=O)[C@H](CCCCN)NC(=O)CCSCc3cccc(c3)CSC[C@@H](C(N)=O)NC(=O)[C@@H]3CCCN3C(=O)[C@H](Cc3ccc(O)cc3)NC(=O)[C@H](C)NC(=O)[C@@H]3CCCN3C2=O)cc1` [Compound 018] ([Mpa]KG[Trp(5-F)]Y(Me)PAYPC-NH2; linker 1-10 via mXylylene): 0.1 to 1 µM. As for `C[C@@H]1NC(=O)[C@@H]2CCCN2C(=O)[C@H](Cc2ccccn2)NC(=O)[C@H](Cc2c[nH]c3ccc(F)cc23)NC(=O)CNC(=O)[C@H](CCCCN)NC(=O)CCSCc2cccc(c2)CSC[C@@H](C(N)=O)NC(=O)[C@@H]2CCCN2C(=O)[C@H](Cc2ccc(O)cc2)NC1=O` [Compound 019] ([Mpa]KG[Trp(5-F)][2Pal]PAYPC-NH2; linker 1-10 via mXylylene), the figure is 21 to 50 µM.

Turning to `C[C@@H]1NC(=O)[C@@H]2CCCN2C(=O)[C@H](Cc2cccnc2)NC(=O)[C@H](Cc2c[nH]c3ccc(F)cc23)NC(=O)CNC(=O)[C@H](CCCCN)NC(=O)CCSCc2cccc(c2)CSC[C@@H](C(N)=O)NC(=O)[C@@H]2CCCN2C(=O)[C@H](Cc2ccc(O)cc2)NC1=O` [Compound 020] ([Mpa]KG[Trp(5-F)][3Pal]PAYPC-NH2; linker 1-10 via mXylylene), the IC50 was 21 to 50 µM. As for `C[C@@H]1NC(=O)[C@@H]2CCCN2C(=O)[C@H](Cc2ccncc2)NC(=O)[C@H](Cc2c[nH]c3ccc(F)cc23)NC(=O)CNC(=O)[C@H](CCCCN)NC(=O)CCSCc2cccc(c2)CSC[C@@H](C(N)=O)NC(=O)[C@@H]2CCCN2C(=O)[C@H](Cc2ccc(O)cc2)NC1=O` [Compound 021] ([Mpa]KG[Trp(5-F)][4Pal]PAYPC-NH2; linker 1-10 via mXylylene), the figure is 0.1 to 1 µM.

In turn, `C[C@@H]1NC(=O)[C@@H]2CCCN2C(=O)[C@](C)(Cc2c[nH]c3ccccc23)NC(=O)[C@H](Cc2c[nH]c3ccc(F)cc23)NC(=O)CNC(=O)[C@H](CCCCN)NC(=O)CCSCc2cccc(c2)CSC[C@@H](C(N)=O)NC(=O)[C@@H]2CCCN2C(=O)[C@H](Cc2ccc(O)cc2)NC1=O` [Compound 023] ([Mpa]KG[Trp(5-F)][αMeW]PAYPC-NH2; linker 1-10 via mXylylene) returned an IC50 of 1 to 12.1 µM.

The compound `C[C@@H]1NC(=O)[C@@H]2CCCN2C(=O)[C@H](Cc2c[nH]c3ccc(F)cc23)NC(=O)[C@H](Cc2c[nH]c3ccc(F)cc23)NC(=O)[C@@H](C)NC(=O)C2(CCCC2)NC(=O)CCSCc2cccc(c2)CSCCNC(=O)[C@@H]2CCCN2C(=O)[C@H](Cc2ccc(O)cc2)NC1=O` [Compound 030] (cyclo(AYP[X1][Ac5c][dA][Trp(5-F)][Trp(5-F)]P)) yielded an IC50 of 0.1 to 1 µM. The same measure for `C[C@@H]1NC(=O)[C@@H]2CCCN2C(=O)[C@H](Cc2c[nH]c3ccc(F)cc23)NC(=O)[C@H](Cc2c[nH]c3ccc(F)cc23)NC(=O)[C@@H](C)NC(=O)C2(CCOCC2)NC(=O)CCSCc2cccc(c2)CSCCNC(=O)[C@@H]2CCCN2C(=O)[C@H](Cc2ccc(O)cc2)NC1=O` [Compound 031] (cyclo(AYP[X1][Thp][dA][Trp(5-F)][Trp(5-F)]P)): 0.1 to 1 µM; for `C[C@@H]1NC(=O)[C@@H]2CCCN2C(=O)[C@H](Cc2c[nH]c3ccc(F)cc23)NC(=O)[C@H](Cc2c[nH]c3ccc(F)cc23)NC(=O)CNC(=O)[C@H](CCCCN)NC(=O)CCSCc2cccc(c2)CSC[C@@H](C(N)=O)NC(=O)[C@@H]2CCCN2C(=O)[C@@H]2CCCN2C1=O` [Compound 032] ([Mpa]KG[Trp(5-F)][Trp(5-F)]PAPPC-NH2; linker 1-10 via mXylylene): 0.1 to 1 µM; for `NCCCC[C@@H]1NC(=O)CCSCc2cccc(c2)CSC[C@@H](C(N)=O)NC(=O)[C@@H]2CCCN2C(=O)[C@@H]2CCCN2C(=O)[C@@H]2CCCN2C(=O)[C@@H]2CCCN2C(=O)[C@H](Cc2c[nH]c3ccc(F)cc23)CC(=O)[C@H](Cc2c[nH]c3ccc(F)cc23)NC(=O)CNC1=O` [Compound 033]: 1 to 12.1 µM. Turning to `C[C@@H]1NC(=O)[C@@H]2CCCCN2C(=O)[C@H](Cc2c[nH]c3ccc(F)cc23)NC(=O)[C@H](Cc2c[nH]c3ccc(F)cc23)NC(=O)[C@@H](C)NC(=O)[C@H](CCCCN)NC(=O)CCSCc2cccc(c2)CSC[C@@H](C(N)=O)NC(=O)[C@@H]2CCCN2C(=O)[C@H](Cc2ccc(O)cc2)NC1=O` [Compound 035] ([Mpa]K[dA][Trp(5-F)][Trp(5-F)][Pip]AYPC-NH2; linker 1-10 via mXylylene), the IC50 lay in the range of 0.1 to 1 µM.

`C[C@@H]1NC(=O)[C@@H]2C[C@@H](F)CN2C(=O)[C@H](Cc2c[nH]c3ccc(F)cc23)NC(=O)[C@H](Cc2c[nH]c3ccc(F)cc23)NC(=O)[C@@H](C)NC(=O)[C@H](CCCCN)NC(=O)CCSCc2cccc(c2)CSC[C@@H](C(N)=O)NC(=O)[C@@H]2CCCN2C(=O)[C@H](Cc2ccc(O)cc2)NC1=O` [Compound 037] ([Mpa]K[dA][Trp(5-F)][Trp(5-F)][Pro(trans-4-F)]AYPC-NH2; linker 1-10 via mXylylene) came in with an IC50 of 0.1 to 1 µM. As for `C[C@@H]1NC(=O)[C@@H]2C=CCN2C(=O)[C@H](Cc2c[nH]c3ccc(F)cc23)NC(=O)[C@H](Cc2c[nH]c3ccc(F)cc23)NC(=O)[C@@H](C)NC(=O)[C@H](CCCCN)NC(=O)CCSCc2cccc(c2)CSC[C@@H](C(N)=O)NC(=O)[C@@H]2CCCN2C(=O)[C@H](Cc2ccc(O)cc2)NC1=O` [Compound 038] ([Mpa]K[dA][Trp(5-F)][Trp(5-F)][ΔPro]AYPC-NH2; linker 1-10 via mXylylene), the figure is 0.1 to 1 µM.

Turning to `C[C@H]1NC(=O)[C@H]2CCCN2C(=O)[C@H](Cc2c[nH]c3ccc(F)cc23)NC(=O)[C@H](Cc2c[nH]c3ccc(F)cc23)NC(=O)CNC(=O)[C@H](CCCCN)NC(=O)CCSCc2cccc(c2)CSCCNC(=O)C2CCCN2C(=O)[C@H](Cc2ccc(O)cc2)NC1=O` (stereo partly shown) [Compound 040] (cyclo(G[Trp(5-F)][Trp(5-F)][dP][dA]Y[ξP][X1]K)), the IC50 was in the range of 0.001 to 0.1 µM. The same measure for `C[C@@H]1NC(=O)[C@@H]2CCCN2C(=O)[C@H](Cc2c[nH]c3ccc(F)cc23)NC(=O)[C@H](Cc2c[nH]c3ccc(F)cc23)NC(=O)[C@@H](C)NC(=O)[C@@H]2CCCN2C(=O)CCSCc2cccc(c2)CSCCNC(=O)[C@@H]2CCCN2C(=O)[C@H](Cc2ccccc2)N(C)C1=O` [Compound 051] (cyclo(A[NMeF]P[X1]P[dA][Trp(5-F)][Trp(5-F)]P)): 0.001 to 0.1 µM. As for `C[C@@H]1NC(=O)[C@@H]2CCCN2C(=O)[C@H](Cc2c[nH]c3ccc(F)cc23)NC(=O)[C@H](Cc2c[nH]c3ccc(F)cc23)NC(=O)[C@@H](C)NC(=O)[C@@H]2CCCN2C(=O)CCSCc2cccc(c2)CSCCNC(=O)[C@@H]2CCCN2C(=O)[C@H](Cc2ccc(O)cc2)N(C)C1=O` [Compound 052] (cyclo(A[NMeY]P[X1]P[dA][Trp(5-F)][Trp(5-F)]P)), the figure is 0.1 to 1 µM.
